Results reported in ChEMBL document CHEMBL3885861, “Open TG-GATES”.

Species on record: Rattus norvegicus
Assay: Open TG-GATES - Regimen: Single
Type: toxicity, organism-based, Sprague-Dawley
Design: regimen Single, gender Male, age 6 weeks
Conditions: in vivo, po, 100 mg/kg, route gavage, dose level Low; for APTT / Bas / Eos / Fbg / Hb / Ht / Lym / MCH / MCHC / MCV / Mono / Neu / PT / Plat / RBC / Ret / WBC: tissue Blood; for KIDNEY_L / KIDNEY_R / KIDNEY_TOTAL: tissue Kidney; for LIVER: tissue Liver; for A/G / ALP / ALT / AST / BUN / CRE / Ca / Cl / DBIL / GLC / IP / K / LDH / Na / PL / RALB / TBIL / TC / TG / TP / gamma-GTP: tissue Plasma

O=C(OC[C@H]1O[C@@H](OC(=O)c2cc(O)c(O)c(OC(=O)c3cc(O)c(O)c(O)c3)c2)[C@H](OC(=O)c2cc(O)c(O)c(OC(=O)c3cc(O)c(O)c(O)c3)c2)[C@@H](OC(=O)c2cc(O)c(O)c(OC(=O)c3cc(O)c(O)c(O)c3)c2)[C@@H]1OC(=O)c1cc(O)c(O)c(OC(=O)c2cc(O)c(O)c(O)c2)c1)c1cc(O)c(O)c(OC(=O)c2cc(O)c(O)c(O)c2)c1 [TANNIC ACID]
TERMINAL_BW (3 h): 188.9 g | APTT (3 h): 16.1 s | Bas (3 h): 0% | Eos (3 h): 1.2% | Fbg (3 h): 212.2 mg/dL | Hb (3 h): 13 g/dL | Ht (3 h): 38.5% | Lym (3 h): 82% | MCH (3 h): 22.2 pg | MCHC (3 h): 33.8% | MCV (3 h): 65.6 fL | Mono (3 h): 5.8% | Neu (3 h): 11.2% | PT (3 h): 11.5 s | Plat (3 h): 112.2 x10_4/uL | RBC (3 h): 587 x10_4/ul | Ret (3 h): 10.1% | WBC (3 h): 96.7 x10_2/uL | KIDNEY_L (3 h): 0.9 g | KIDNEY_R (3 h): 0.9 g | KIDNEY_TOTAL (3 h): 1.7 g | LIVER (3 h): 8.6 g | A/G (3 h): 2 | ALP (3 h): 882 IU/L | ALT (3 h): 37.8 IU/L | AST (3 h): 70.2 IU/L | BUN (3 h): 15.8 mg/dL | CRE (3 h): 0.5 mg/dL | Ca (3 h): 10.9 mg/dL | Cl (3 h): 105 meq/L | DBIL (3 h): 0.018 mg/dL | GLC (3 h): 198 mg/dL | IP (3 h): 10.2 mg/dL | K (3 h): 4.9 meq/L | LDH (3 h): 75 IU/L | Na (3 h): 139.2 meq/L | PL (3 h): 128.8 mg/dL | RALB (3 h): 3.5 g/dL | TBIL (3 h): 0.5 mg/dL | TC (3 h): 68.6 mg/dL | TG (3 h): 47.6 mg/dL | TP (3 h): 5.3 g/dL | gamma-GTP (3 h): 2.2 IU/L | TERMINAL_BW (6 h): 185 g | APTT (6 h): 17.1 s | Bas (6 h): 0% | Eos (6 h): 1% | Fbg (6 h): 212.6 mg/dL | Hb (6 h): 12.7 g/dL | Ht (6 h): 37.9% | Lym (6 h): 78.4% | MCH (6 h): 22.6 pg | MCHC (6 h): 33.5% | MCV (6 h): 67.3 fL | Mono (6 h): 6.4% | Neu (6 h): 14.6% | PT (6 h): 12 s | Plat (6 h): 109.6 x10_4/uL | RBC (6 h): 564 x10_4/ul | Ret (6 h): 10.4% | WBC (6 h): 85.8 x10_2/uL | KIDNEY_L (6 h): 0.9 g | KIDNEY_R (6 h): 0.9 g | KIDNEY_TOTAL (6 h): 1.8 g | LIVER (6 h): 8.5 g | A/G (6 h): 2 | ALP (6 h): 684.8 IU/L | ALT (6 h): 38.6 IU/L | AST (6 h): 70.4 IU/L | BUN (6 h): 12.6 mg/dL | CRE (6 h): 0.5 mg/dL | Ca (6 h): 10.8 mg/dL | Cl (6 h): 105 meq/L | DBIL (6 h): 0.032 mg/dL | GLC (6 h): 188.2 mg/dL | IP (6 h): 10.4 mg/dL | K (6 h): 4.5 meq/L | LDH (6 h): 102.8 IU/L | Na (6 h): 140.6 meq/L | PL (6 h): 140.2 mg/dL | RALB (6 h): 3.5 g/dL | TBIL (6 h): 0.5 mg/dL | TC (6 h): 86 mg/dL | TG (6 h): 41.4 mg/dL | TP (6 h): 5.3 g/dL | gamma-GTP (6 h): 1.2 IU/L
